Experimental data published in ChEMBL document CHEMBL1131045, “Indole-2-carboxamide inhibitors of human liver glycogen phosphorylase” (J Med Chem, 1998).
“And” between values parts separate entries of the source, which are not always exact repeats. Equal entries are not always repeated.

Experiments:
Mus musculus [1] = assay: Hypoglycemic responses resulting from oral dosing in diabetic ob/ob mice(inactive dose), po; format: functional
[2] = biological target: T1, Glycogen phosphorylase, liver form (Homo sapiens, UniProt P06737); assay: In vitro inhibitory activity against recombinant human liver glycogen phosphorylase a (rHLGPa) catalyzed release of phosphate from glucose-1-phosphate.
T1 sequence (P06737 whole entry): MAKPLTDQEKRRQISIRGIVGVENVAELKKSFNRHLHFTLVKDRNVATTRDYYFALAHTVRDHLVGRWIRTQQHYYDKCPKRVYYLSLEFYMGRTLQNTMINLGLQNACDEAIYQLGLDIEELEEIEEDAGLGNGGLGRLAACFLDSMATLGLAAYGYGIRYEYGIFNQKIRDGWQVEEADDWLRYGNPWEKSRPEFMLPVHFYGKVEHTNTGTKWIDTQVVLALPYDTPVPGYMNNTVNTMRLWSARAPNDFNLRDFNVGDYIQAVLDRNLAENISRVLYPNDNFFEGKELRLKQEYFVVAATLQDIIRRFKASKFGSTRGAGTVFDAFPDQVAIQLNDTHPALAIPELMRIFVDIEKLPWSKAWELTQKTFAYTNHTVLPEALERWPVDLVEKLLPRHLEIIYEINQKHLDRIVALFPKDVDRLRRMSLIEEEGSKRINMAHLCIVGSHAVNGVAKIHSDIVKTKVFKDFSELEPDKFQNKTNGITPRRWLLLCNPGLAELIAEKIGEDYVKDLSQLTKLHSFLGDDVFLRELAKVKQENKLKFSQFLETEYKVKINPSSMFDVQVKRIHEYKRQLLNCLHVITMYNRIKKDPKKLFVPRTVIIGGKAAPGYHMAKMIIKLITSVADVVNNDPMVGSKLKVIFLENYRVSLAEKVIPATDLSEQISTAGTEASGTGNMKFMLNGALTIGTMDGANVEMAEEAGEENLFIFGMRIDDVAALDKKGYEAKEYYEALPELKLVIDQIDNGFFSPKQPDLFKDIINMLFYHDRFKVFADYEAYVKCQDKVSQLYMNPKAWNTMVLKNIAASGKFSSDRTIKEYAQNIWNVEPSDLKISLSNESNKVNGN

[3] = Inhibition of forskolin-stimulated glycogenolysis in SK-HEP-1 cells; format: functional, cell-based; details: Homo sapiens, SK-HEP1
Mus musculus [4] = species: Mus musculus; assay: Percent decrease in drug -treated plasma glucose concentration, relative to vehicle treated control diabetic ob/ob mice; format: functional
Mus musculus [5] = assay: Hypoglycemic responses resulting from oral dosing in diabetic ob/ob mice(active dose), po; format: functional

| SMILES | Dose (Mus musculus [1]) | IC50 [2] | IC50 [3] | Glucose (Mus musculus [4]) | Dose (Mus musculus [5]) |
| --- | --- | --- | --- | --- | --- |
| CN(C)C(=O)[C@H](O)[C@H](Cc1ccccc1)NC(=O)c1cc2cc(F)ccc2[nH]1 | 10 mg/kg | 170 nM | 6200 nM | 33% | 25 mg/kg |
| CN(C)C(=O)[C@@H](O)[C@@H](Cc1ccccc1)NC(=O)c1cc2cc(Cl)ccc2[nH]1 |  | 1800 nM |  |  |  |
| O=C(N[C@@H](Cc1ccccc1)[C@@H](O)CO)c1cc2cc(Cl)ccc2[nH]1 |  | 6800 nM |  |  |  |
| CNC(=O)[C@H](Cc1ccccc1)NC(=O)c1cc2cc(Cl)ccc2[nH]1 | 25 mg/kg | 110 nM | 5200 nM | 49% | 50 mg/kg |
| CN(C)C(=O)[C@H](O)[C@H](Cc1ccccc1)NC(=O)c1cc2cc(Br)ccc2[nH]1 | 50 mg/kg | 97 nM | 3300 nM |  |  |
| COC(=O)[C@H](Cc1ccccc1)NC(=O)c1cc2cc(Cl)ccc2[nH]1 | 50 mg/kg | 140 nM | > 30000 nM |  |  |
| O=C(N[C@@H](Cc1ccccc1)C(=O)N1CCC(O)CC1)c1cc2cc(Cl)ccc2[nH]1 | 10 mg/kg | 260 nM | 5100 nM | 36% | 25 mg/kg |
| O=C(N[C@@H](Cc1ccc(F)cc1)C(=O)N1CCC(O)CC1)c1cc2cc(Cl)ccc2[nH]1 | 5 mg/kg |  | 1900 nM | 44% and 45% and 26% and 24% |  |
| CN(C)C(=O)[C@H](Cc1ccccc1)NC(=O)c1cc2cc(Cl)ccc2[nH]1 |  | 82 nM | 1900 nM |  |  |
| CN(C)C(=O)[C@@H](Cc1ccccc1)NC(=O)c1cc2cc(Cl)ccc2[nH]1 |  | 260 nM | 12000 nM |  |  |
| CN(C)C(=O)[C@H](Cc1ccccc1)NC(=O)c1cc2cc(F)ccc2[nH]1 | 50 mg/kg | 430 nM | 2300 nM |  |  |
| CN(C)C(=O)[C@@H](O)[C@H](Cc1ccccc1)NC(=O)c1cc2cc(Cl)ccc2[nH]1 | 50 mg/kg | 8700 nM |  |  |  |
| CN(C)C(=O)[C@H](O)[C@H](CC1CCCCC1)NC(=O)c1cc2cc(Cl)ccc2[nH]1 |  | 6500 nM |  |  |  |
| CNC(=O)[C@@H](Cc1ccccc1)NC(=O)c1cc2cc(Cl)ccc2[nH]1 | 25 mg/kg | 220 nM | 12000 nM | 39% | 50 mg/kg |
| O=C(N[C@@H](Cc1ccccc1)C(=O)O)c1cc2cc(Cl)ccc2[nH]1 |  | 1700 nM | > 30000 nM |  |  |
| CN(C)C(=O)[C@H](O)[C@@H](Cc1ccccc1)NC(=O)c1cc2cc(Cl)ccc2[nH]1 |  | 1700 nM |  |  |  |
| O=C(N[C@H](CO)Cc1ccccc1)c1cc2cc(Cl)ccc2[nH]1 |  | > 10000 nM |  |  |  |
| NC(=O)[C@H](O)[C@H](Cc1ccccc1)NC(=O)c1cc2cc(Cl)ccc2[nH]1 |  | 1700 nM |  |  |  |
| CN(C)C(=O)[C@H](Cc1ccccc1)NC(=O)c1cc2ccccc2[nH]1 | 25 mg/kg | 400 nM | 7800 nM | 40% | 50 mg/kg |
| COc1ccc2[nH]c(C(=O)N[C@@H](Cc3ccccc3)C(=O)N(C)C)cc2c1 |  | 4700 nM |  |  |  |
| O=C(N[C@@H](Cc1ccccc1)[C@@H](O)C(=O)O)c1cc2cc(Cl)ccc2[nH]1 |  | 330 nM | > 30000 nM |  |  |
| CN(C)C(=O)[C@H](Cc1ccccc1)NC(=O)c1cc2cc(Br)ccc2[nH]1 | 50 mg/kg | 110 nM | 1400 nM |  |  |
| CN(C)C(=O)[C@H](O)[C@H](Cc1ccccc1)NC(=O)c1cc2ccccc2[nH]1 |  | 440 nM | > 30000 nM |  |  |
| CN(C)C(=O)[C@H](O)[C@H](Cc1ccccc1)NC(=O)c1cc2cc(Cl)ccc2[nH]1 | 15 mg/kg | 110 nM | 1500 nM | 40% and 32% | 50 mg/kg and 25 mg/kg |
| COC(=O)[C@H](O)[C@H](Cc1ccccc1)NC(=O)c1cc2cc(Cl)ccc2[nH]1 | 50 mg/kg | 210 nM | 13000 nM |  |  |
| CNC(=O)[C@H](O)[C@H](Cc1ccccc1)NC(=O)c1cc2cc(Cl)ccc2[nH]1 |  | 680 nM | > 30000 nM |  |  |
